Results taken from US20260022142A1, “MACROCYCLIC IMMUNOMODULATORS” (Bristol-Myers Squibb Company, priority 2022, published 2026).
Numbered stars: 1 amine (or outer) side, 2 acyl side, 3 side chain; on linkers, the order of the positions; unused ones are H or OH. Bridge positions count the residues as written; N and C are the ends. Square brackets hold non-standard residues; d marks the D form. Peptide text beside a SMILES is read from it. * marks the point of attachment. ξ: configuration not given here. Phe(3-CF3) = N[C@@H](Cc1cccc(C(F)(F)F)c1)C(=O)O; Phe(4-CONH2) = NC(=O)c1ccc(C[C@H](N)C(=O)O)cc1; Phe(4-COOH) = N[C@@H](Cc1ccc(C(=O)O)cc1)C(=O)O; Bip = N[C@@H](Cc1ccc(-c2ccccc2)cc1)C(=O)O; NH(CH2)14COOH = O=C(O)CCCCCCCCCCCCCCN*; Phe(3-Me) = Cc1cccc(C[C@H](N)C(=O)O)c1; X19 = O=C([C@@H]1CC(O)CN1[*:1])[*:2]; Val(3-OH) = CC(C)(O)[C@H](N)C(=O)O; hArg = N=C(N)NCCCC[C@H](N)C(=O)O; Cha = N[C@@H](CC1CCCCC1)C(=O)O; Cit = NC(=O)NCCC[C@H](N)C(=O)O; Thr(3ξ) = CC(O)[C@H](N)C(=O)O; Dap(Me) = CNC[C@H](N)C(=O)O; 12Ado = NCCCCCCCCCCCC(=O)O; Carboxymethyl = O=C(O)C*; Orn = NCCC[C@H](N)C(=O)O; Aun = NCCCCCCCCCCC(=O)O; Dab = NCC[C@H](N)C(=O)O; Dap = NC[C@H](N)C(=O)O; AEEA = NCCOCCOCC(=O)O

molecular target: T1, PD-1/PD-L1 interaction (PE-labeled human PD-L1-Ig binding to Jurkat cell line over-expressing human PD-1) (Homo sapiens, UniProt Q15116); test: Jurkat-PD-1 Cell Binding High-Content Screening Assay (CBA); type: cell-based; settings: Jurkat cell line over-expressing human PD-1; PE-labeled PD-L1-Ig 20 nM final; read-out: Jurkat hPD1-PDL1 IC50
T1 construct: expressed in transfected cells; host or cells: Jurkat
T1 sequence (Q15116 25-288): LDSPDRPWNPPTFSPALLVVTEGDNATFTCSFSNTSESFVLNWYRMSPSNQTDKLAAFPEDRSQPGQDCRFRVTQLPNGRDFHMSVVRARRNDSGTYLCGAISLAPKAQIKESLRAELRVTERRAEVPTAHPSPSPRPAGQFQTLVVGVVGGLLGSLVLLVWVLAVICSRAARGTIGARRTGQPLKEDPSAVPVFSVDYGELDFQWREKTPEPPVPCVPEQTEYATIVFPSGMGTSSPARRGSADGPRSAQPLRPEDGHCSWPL
Procedure, shortened: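 Jurkat-hPD-1 cells, DMEM/10% FCS; cpd 2 h 37° C; PE-PD-L1-Ig 20 nM final, 1 h; 4% PFA fix + Hoechst 33342, 3× dPBS wash; high-content imaging read-out.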

| SMILES | IC50 [nM] |
| --- | --- |
| CC(C)C[C@H]1NC(=O)[C@H](CCCN)NC(=O)[C@H](Cc2ccc(O)cc2)NC(=O)[C@H](Cc2ccc(-c3ccccc3)cc2)NC(=O)[C@H](C(C)C)NC(=O)[C@H](Cc2c[nH]c3ccccc23)NC(=O)[C@H](CC(=O)O)NC(=O)[C@H](Cc2ccc(OCC(=O)O)cc2)NC(=O)[C@H](CCCCNC(=N)N)NC(=O)CSC[C@@H](C(=O)N[C@@H](CCN)C(=O)NCCCCCCCCCCC(=O)O)NC(=O)[C@H](C(C)O)NC(=O)[C@H](C(C)C)NC(=O)[C@H](CC2CCCCC2)NC(=O)[C@H](CCN)NC1=O (stereo partly drawn) [Compound 3410] ({CH2CO}-[hArg]Y(Carboxymethyl)DWV[Bip]Y[Orn][dL][Dab][Cha]V[Thr(3ξ)]C[Dab][Aun]-OH; thioether N-14) | 20.2 |
| Cc1cccc(C[C@@H]2NC(=O)[C@H](CC(=O)O)NC(=O)[C@H](Cc3ccc(OCC(=O)O)cc3)NC(=O)[C@H](CCN)NC(=O)CSC[C@@H](C(=O)N[C@@H](CCN)C(=O)NCCOCCOCC(=O)NCCCCCCCCCCCCCCC(=O)O)NC(=O)[C@H](Cc3c[nH]cn3)NC(=O)[C@H](C(C)(C)O)NC(=O)[C@H](CC3CCCCC3)NC(=O)[C@H](CCN)NC(=O)[C@@H](CC(C)C)NC(=O)[C@H](CCCN)NC(=O)[C@H](Cc3ccc(OCC(=O)O)cc3)NC(=O)[C@H](Cc3ccc(-c4ccccc4)cc3)NC(=O)[C@H](Cc3ccc(OCC(=O)O)cc3)NC2=O)c1 [Compound 2872] ({CH2CO}-[Dab]Y(Carboxymethyl)D[Phe(3-Me)]Y(Carboxymethyl)[Bip]Y(Carboxymethyl)[Orn][dL][Dab][Cha][Val(3-OH)]HC[Dab][AEEA]-{NH(CH2)14COOH}; thioether N-14) | 83.8 |
| CC(C)C[C@H]1NC(=O)[C@H](CCCN)NC(=O)[C@H](C(C)C)NC(=O)[C@H](Cc2ccc(-c3ccccc3)cc2)NC(=O)[C@H](C(C)C)NC(=O)[C@H](Cc2c[nH]c3ccccc23)NC(=O)[C@H](CC(=O)O)NC(=O)[C@H](Cc2ccc(C(=O)O)cc2)NC(=O)[C@H](Cc2ccc(OCC(=O)O)cc2)NC(=O)CSC[C@@H](C(=O)N[C@@H](CCN)C(=O)NCCCCCCCCCCC(=O)O)NC(=O)[C@H](CCCCN)NC(=O)[C@H](C(C)C)NC(=O)[C@H](CC2CCCCC2)NC(=O)[C@H](CCN)NC1=O [Compound 2555] ({CH2CO}-Y(Carboxymethyl)[Phe(4-COOH)]DWV[Bip]V[Orn][dL][Dab][Cha]VKC[Dab][Aun]-OH; thioether N-14) | 24.1 |
| Cc1cccc(C[C@@H]2NC(=O)[C@H](CC(=O)O)NC(=O)[C@H](Cc3ccc(OCC(=O)O)cc3)NC(=O)[C@H](CN)NC(=O)CSC[C@@H](C(=O)N[C@@H](C)C(=O)N[C@@H](CCCCN)C(=O)NCCCCCCCCCCC(=O)O)NC(=O)[C@H]([C@@H](C)O)NC(=O)[C@H](C(C)C)NC(=O)[C@H](CC3CCCCC3)NC(=O)[C@H](CCN)NC(=O)[C@@H](CC(C)C)NC(=O)[C@H](CCCN)NC(=O)[C@H](CCCNC(N)=O)NC(=O)[C@H](Cc3ccc(-c4ccccc4)cc3)NC(=O)[C@H](C(C)C)NC2=O)c1 [Compound 1070] ({CH2CO}-[Dap]Y(Carboxymethyl)D[Phe(3-Me)]V[Bip][Cit][Orn][dL][Dab][Cha]VTCAK[Aun]-OH; thioether N-14) | 10.4 |
| CNC[C@@H]1NC(=O)CSC[C@@H](C(=O)N[C@@H](CCN)C(=O)NCCOCCOCC(=O)N[C@@H](CO)C(=O)NCCCCCCCCCCCCCCC(=O)O)NC(=O)[C@H](CCC(=O)O)NC(=O)[C@H](C(C)C)NC(=O)[C@H](CC2CCCCC2)NC(=O)[C@H](CCN)NC(=O)[C@@H](CC(C)C)NC(=O)[C@H](CCCN)NC(=O)[C@H](Cc2ccc(C(=O)O)cc2)NC(=O)[C@H](Cc2ccc(-c3ccccc3)cc2)NC(=O)[C@H](Cc2ccc(C(=O)O)cc2)NC(=O)[C@H](Cc2cccc(C(F)(F)F)c2)NC(=O)[C@H](CC(=O)O)NC(=O)[C@H](Cc2ccc(OCC(=O)O)cc2)NC1=O [Compound 3895] ({CH2CO}-[Dap(Me)]Y(Carboxymethyl)D[Phe(3-CF3)][Phe(4-COOH)][Bip][Phe(4-COOH)][Orn][dL][Dab][Cha]VEC[Dab][AEEA]S-{NH(CH2)14COOH}; thioether N-14) | 49.4 |

The remaining compounds from weak to strong by IC50, led by results:

| IC50 [nM] | SMILES |
| --- | --- |
| 411 | CC(C)C[C@H]1NC(=O)[C@H](CCCN)NC(=O)[C@H](C(C)C)NC(=O)[C@H](Cc2ccc(-c3ccccc3)cc2)NC(=O)[C@H](C(C)C)NC(=O)[C@H](Cc2c[nH]c3ccccc23)NC(=O)[C@H](CC(=O)O)NC(=O)[C@H](Cc2c[nH]cn2)NC(=O)[C@H](CCCNC(=N)N)NC(=O)CSC[C@@H](C(=O)N[C@@H](CCN)C(=O)NCCCCCCCCCCC(=O)O)NC(=O)[C@@H]2CC(O)CN2C(=O)[C@H](C(C)C)NC(=O)[C@H](CC2CCCCC2)NC(=O)[C@H](CCN)NC1=O (stereo partly drawn) [Compound 3275] ({CH2CO}-RHDWV[Bip]V[Orn][dL][Dab][Cha]V[X19]C[Dab][Aun]-OH; thioether N-14) |
| 152 | Cc1cccc(C[C@@H]2NC(=O)[C@H](CC(=O)O)NC(=O)[C@H](Cc3ccc(OCC(=O)O)cc3)NC(=O)[C@H](CN)NC(=O)CSC[C@@H](C(=O)NCCOCCOCC(=O)NCCCCCCCCCCC(=O)O)NC(=O)[C@H](CCCN)NC(=O)[C@H](Cc3ccc(O)cc3)NC(=O)[C@H](CC3CCCCC3)NC(=O)[C@H](CCN)NC(=O)[C@@H](CC(C)C)NC(=O)[C@H](CCCN)NC(=O)[C@H](Cc3ccc(O)cc3)NC(=O)[C@H](Cc3ccc(-c4ccccc4)cc3)NC(=O)[C@H](Cc3ccc(O)cc3)NC2=O)c1 [Compound 2519] ({CH2CO}-[Dap]Y(Carboxymethyl)D[Phe(3-Me)]Y[Bip]Y[Orn][dL][Dab][Cha]Y[Orn]C[AEEA][Aun]-OH; thioether N-14) |
| 21.8 | Cc1cccc(C[C@@H]2NC(=O)[C@H](CC(=O)O)NC(=O)[C@H](Cc3ccc(OCC(=O)O)cc3)NC(=O)[C@H](Cc3ccc(C(N)=O)cc3)NC(=O)CSC[C@@H](C(=O)N[C@@H](CCCN)C(=O)N[C@@H](CO)C(=O)NCCCCCCCCCCCC(=O)O)NC(=O)[C@H](CO)NC(=O)[C@H](C(C)(C)O)NC(=O)[C@H](CC3CCCCC3)NC(=O)[C@H](CCN)NC(=O)[C@@H](CC(C)C)NC(=O)[C@H](CCCN)NC(=O)[C@H](Cc3ccc(OCC(=O)O)cc3)NC(=O)[C@H](Cc3ccc(-c4ccccc4)cc3)NC(=O)[C@H](Cc3ccc(OCC(=O)O)cc3)NC2=O)c1 [Compound 3618] ({CH2CO}-[Phe(4-CONH2)]Y(Carboxymethyl)D[Phe(3-Me)]Y(Carboxymethyl)[Bip]Y(Carboxymethyl)[Orn][dL][Dab][Cha][Val(3-OH)]SC[Orn]S[12Ado]-OH; thioether N-14) |
| 10.4 | Cc1cccc(C[C@@H]2NC(=O)[C@H](CC(=O)O)NC(=O)[C@H](Cc3ccc(OCC(=O)O)cc3)NC(=O)[C@H](CN)NC(=O)CSC[C@@H](C(=O)N[C@@H](C)C(=O)N[C@@H](CCCN)C(=O)NCC(=O)NCCCCCCCCCCC(=O)O)NC(=O)[C@H]([C@@H](C)O)NC(=O)[C@H](C(C)C)NC(=O)[C@H](CC3CCCCC3)NC(=O)[C@H](CCN)NC(=O)[C@@H](CC(C)C)NC(=O)[C@H](CCCN)NC(=O)[C@H](CCCNC(N)=O)NC(=O)[C@H](Cc3ccc(-c4ccccc4)cc3)NC(=O)[C@H](C(C)C)NC2=O)c1 [Compound 1068] ({CH2CO}-[Dap]Y(Carboxymethyl)D[Phe(3-Me)]V[Bip][Cit][Orn][dL][Dab][Cha]VTCA[Orn]G[Aun]-OH; thioether N-14) |
